Test results taken from patent US20050059610A1 (priority 2003, published 2005).
Entries after “also recorded” stand apart in the source; their conditions may differ.

Assays:
HSP 72 = assay: HSP expression in heart and lung tissue of unstressed rats (Western blot); assay type: in vivo, rat
Protocol: GLN enhances heat shock protein expression in the unstressed and stressed myocardium. […] The increase was also observed for HSP 27 (another of the protective heat shock proteins) wherein the induction occurred as early as 4-6 hours and persisted for up to 48-72 hours.
Tissues were then harvested four hours post-GLN administration, and HSP 72 expressions were analyzed by Western blot. The image shown is representative of those obtained in four different experiments. The graph represents a percent increase in HSP 72 over control. […] (*p<0.001, **p<0.01, ***p<0.05 compared to control by ANOVA.)

cardiomyocytes = assay: Ischemia/reperfusion injury of isolated cardiomyocytes; assay type: cell-based
Protocol: Spontaneously contracting cardiomyocytes were studied.
Cardiomyocytes were allowed to equilibrate at baseline normoxic conditions for 60 minutes.

[1] = test system: myocardial tissue metabolism; assay: Rat working heart model, myocardial tissue metabolism by 1H-/31P-MRS; assay type: in vivo
Protocol: The tissue was analyzed for ATP, ADP, and ATP/ADP ratio via ^31P-magnetic resonance spectroscopy (MRS) and for creatine/phosphocreatine content via ^1H-magnetic resonance spectroscopy (MRS). […] The tissue was analyzed for lactate content via ^1H-MRS. […] Glutamine pretreatment enhances myocardial tissue content (glutamine, glutamate, and glucose) content following myocardial I/R injury in the rat. […] Glutamate is a vital tissue substrate following myocardial injury and it is beneficial that a single dose of […]/R injury can preserve tissue levels of this key substrate following injury. […] This key finding confirms that it is possible to enhance myocardial tissue substrate content (particularly glutamate) with a (pre-operative) remote GLN pre-treatment dose. […] Substrates were analyzed via ^1H-MRS. […] The tissue was analyzed for myocardial tissue reduced glutathione content via ^1H-magnetic resonance spectroscopy (MRS). […] Glutamine pretreatment preserves myocardial NAD (+)/NADH content following myocardial I/R injury in the rat. […] The tissue was analyzed for NAD (+)/NADH content via ^31P-magnetic resonance spectroscopy (MRS). […] NAD(+)/NADH was analyzed via […]. (**-p<0.01 versus pre-ischemic values, ##-p<0.01 versus post-ischemic LR control tissue via ANOVA.)

[2] = test system: polymicrobial sepsis (2CLP); assay: Cecal-ligation and double-puncture (2CLP) sepsis: survival, cytokines, lung HSP 72; assay type: in vivo, Sprague-Dawley rats
From the text: Further, increased Interleukin-18 (IL-18) levels appear to play a critical role in cytokine-induced organ failure and can be predictive of mortality in sepsis patients.
Increased Interleukin-18 (IL-18) levels appear to play a critical role in cytokine-induced organ failure and can be predictive of mortality in sepsis patients.

[3] = test system: polymicrobial sepsis (CLP); assay: Cecal ligation and puncture (CLP): lung and heart tissue metabolism by MRS, survival; assay type: in vivo, Sprague-Dawley rats
Protocol: Survival was monitored for five days. In a separate group of animals (n=4/group), lung and heart tissue was harvested 24 hours post-CLP and tissue metabolism was analyzed by ^1H-MRS and ^31P-MRS.

heatstroke = assay: Experimental heatstroke in the rat, oral GLN; assay type: in vivo, Sprague-Dawley Rats
Protocol: Heatstroke was performed in anesthetized rats (ketamine/xylazine) by heating animals to 42 deg C. (rectal temperature) for 30 minutes. Survival was analyzed for five days post-heatstroke. In a separate set of animals, HSP 70 and Heat Shock Factor-1 activation (HSF-1) were analyzed at 1-hour and 24-hours post-heatstroke in heart and lung tissue via western blot (n=10/group). Statistical analysis was performed via Fischer's Exact Test for survival and ANOVA with Duncan grouping as post-hoc test for HSP-70 and HSF-1 expression.

critically ill patients = assay: Clinical outcomes in critically ill patients, glutamine vs control; assay type: in vivo, human
[4] = test system: polymicrobial sepsis and peritonitis (CLP); assay: CLP peritonitis/polymicrobial sepsis, GLN 30 minutes after induction, with or without quercetin; assay type: in vivo, rat
From the text: Cecal ligation and puncture (CLP) in the rat was chosen as the appropriate model.

[5] = test system: peripheral blood mononuclear cells; assay: Glutamine-treated peripheral blood mononuclear cells; assay type: cell-based
[6] = test system: intestinal epithelial cells; assay: Protection of cells against heat and oxidant stress; assay type: cell-based
From the text: This was proven when blockade of HSP 70 expression via quercetin (inhibits HSF-1 binding) and via direct antisense inhibition of the HSP-70 gene (FIG. 12).

[7] = test system: myocardial ischemia/reperfusion injury
[8] = in vivo; cited from earlier work
[9] = five days of oral GLN prior to heatstroke
[10] = non-pancreatic diagnoses, n = 7
[11] = GLN 30 minutes after induction of peritonitis and sepsis

In the case of `NC(=O)CC[C@H](N)C(=O)O` [GLN, Glutamine], the “HSP 27 induction, earliest occurrence” value (HSP 72; unstressed rat heart) is reported as 4 to 6 h, the “HSP 27 induction, persistence up to” value (HSP 72; unstressed rat heart) is reported as 48 to 72 h and the “HSP 70 and HSP 25 in heart and lung tissue” value (HSP 72; unstressed rats) is reported as “enhance”. The “HSP 72 expression in heart and lung tissue vs control (densitometry)” value (HSP 72; unstressed rats, GLN 0.15, 0.45, 0.75 g/kg over 12-15 minutes, tissue four hours post-GLN) was “significantly enhanced; also recorded: significantly increased”, the “HSP 72 content (western blot) vs cells not receiving GLN” value (cardiomyocytes; 10 mM GLN) was “significant increase” and the “return of contractile function following I/R injury” value (cardiomyocytes; 10 mM GLN) was “significantly enhanced”. For the same molecule, the “cell death from ischemia/reperfusion” value (cardiomyocytes; 10 mM GLN one hour before and throughout ischemia and reperfusion, control 48%) was 22%, the “total ATP content following I/R injury” value ([1]; 0.52 g/kg GLN 18 hours prior, vs control) was “improved” and the “accumulation of myocardial lactate following I/R injury” value ([1]; GLN 18 hours prior) was “significant decrease; also recorded: decreased”. For the same molecule, the “myocardial tissue content of glutamine and glucose following I/R injury versus LR control” value ([1]; GLN 18 hours prior, 1H-MRS) was “enhanced”, the “myocardial tissue creatine/phosphocreatine content following I/R injury” value ([1]; GLN 18 hours prior, 1H-MRS) was “enhanced” and the “myocardial tissue reduced glutathione content following I/R injury” value ([1]; GLN 18 hours prior, 1H-MRS) was “marked enhancement; also recorded: improved”. The “post-ischemic glutamate levels versus pre-ischemic levels” value ([1]; GLN 18 hours prior, 1H-MRS) was “no decrease”, the “myocardial NAD(+)/NADH content following I/R injury” value ([1]; GLN 18 hours prior, MRS) was “significant preservation; also recorded: improved” and the “reduction of the increase in tissue lactate versus control animals” value ([1]; GLN 18 hours prior, post I/R, 1H-MRS) was > 55%. The “expression of IL-18” value ([2]; 12, 18, and 24 hours post-2CLP) was “significantly attenuated”, the “expression of IL-6” value ([2]; 6 hours post-2CLP) was “attenuated” and the “expression of TNF-α” value ([2]; 6 hours post-2CLP) was “attenuated”. For the same molecule, the “lung HSP 72 expression versus control” value ([2]; following 2CLP) was “enhanced”, the “5-day mortality rate following 2CLP” value ([2]; single dose GLN 0.75 g/Kg one hour following surgery, control 78%) was 42% and the “fall in lung tissue Creatine/phosphocreatine” value ([3]; 24 hours post-CLP) was “significantly attenuated”. For the same molecule, the “fall in lung tissue glucose” value ([3]; 24 hours post-CLP) was “significantly attenuated”, the “fall in lung tissue glutamine” value ([3]; 24 hours post-CLP) was “significantly attenuated” and the lung lactate accumulation ([3]; 24 hours post-CLP, p<0.06) was “trend towards a decrease”. For the same molecule, the “five day mortality rate post-CLP” value ([3]; GLN 0.75 g/Kg one hour post surgery) was 78%, the “NAD+ content in lung and heart tissue following CLP” value ([3]; GLN 0.75 g/Kg one hour post surgery, 24 hours post-CLP) was “significant improvement” and the HSF-1 activation (heatstroke; 1-hour and 24-hours post-heatstroke) was “No change”. The “HSP 70 expression in heart and lung tissue” value (heatstroke; 1 hour post-heatstroke, versus unheated animals and heated controls) was “significantly enhanced”, the “HSP 70 between GLN and control animals” value (heatstroke; 24 hours post-heatstroke) was “no significant difference” and the mortality following heatstroke (heatstroke; GLN 0.65 g/kg gavage twice a day for five days, 42 deg C. for 30 minutes, control 62.5%) was 12.5%. For the same molecule, the “HSP 70 expression in heart, lung, and colon tissue” value (heatstroke; [9]) was “enhanced”, the “mortality from lethal heatstroke (in words)” value (heatstroke; [9]) was “significantly reduced” and the ICU days (critically ill patients; all diagnoses, n = 15) was 15.73 ± 16.18 days. For the same molecule, the “Length of stay” value (critically ill patients; all diagnoses, n = 15) was 29.73 ± 14.46 days, the “Maximum Total Bilirubin (units??)” value (critically ill patients; all diagnoses, n = 15) was 1.23 ± 0.67 and the “Maximum Total Creatinine (units??)” value (critically ill patients; all diagnoses, n = 15) was 1.26 ± 0.89. For the same molecule, the “Number of bacterial infections” value (critically ill patients; all diagnoses, n = 15) was 0.20 ± 0.41, the Number of infections (critically ill patients; all diagnoses, n = 15) was 1.87 ± 2.59 and the “One or more bacterial infections (%)” value (critically ill patients; all diagnoses, n = 15) was 20.0%. The “One or more infections (%)” value (critically ill patients; all diagnoses, n = 15) was 60.0%, the Ventilator days (critically ill patients; all diagnoses, n = 15) was 12.07 ± 15.25 days and the ICU days (critically ill patients; [10]) was 16.71 ± 7.65 days. The “Length of stay” value (critically ill patients; [10]) was 25.29 ± 6.18 days, the “Maximum Total Bilirubin (units??)” value (critically ill patients; [10]) was 1.70 ± 0.70 and the “Maximum Total Creatinine (units??)” value (critically ill patients; [10]) was 1.80 ± 1.07. For the same molecule, the “Number of bacterial infections” value (critically ill patients; [10]) was 0.0 ± 0.0, the Number of infections (critically ill patients; [10]) was 1.43 ± 1.40 and the “One or more infections (%)” value (critically ill patients; [10]) was 57.1%. For the same molecule, the “One ore more bacterial infection (%)” value (critically ill patients; [10]) was 0%, the Ventilator days (critically ill patients; [10]) was 12.86 ± 9.03 days and the “serum HSP 70 expression” value ([4]; CLP model, rat) was “markedly enhanced; also recorded: approximate four-fold increase”. For the same molecule, the “deficient lung HSP 70 expression” value [4, 11] was “markedly enhanced”, the “lung HSF-1 activation” value [4, 11] was “markedly enhanced” and the “NAD+/NADH levels in lung tissue” value ([4]; following sepsis and peritonitis) was “nearly doubling”. For the same molecule, the “survival following peritonitis and polymicrobial sepsis” value ([4]; rat, in vivo) was “significantly improve survival; also recorded: doubling of survival”, the “heat shock protein expression” value [5] was “increase” and the tumor-necrosis alpha release [5] was “significant attenuation”. For the same molecule, the “protection of cells against heat and oxidant stress” value [6] was “protection”, the “recovery of cardiac flow following reperfusion” value ([7]; 0.75 g/kg alanine-glutamine (0.52 g/kg glutamine) IP 18 hours prior, pre-load 8 and 12 mmHg) was “significantly improved” and the “percent recovery of coronary flow” value ([7]; 60 minutes following reperfusion, 0.52 g/kg GLN 18 hours prior) was “significantly enhanced”. The post-I/R cardiac output ([7]; single dose 18 hours prior to 15 minutes of no flow ischemia) was “significant improvement” and the half-life [8] was 6 h.
